Where a name gives a salt, the structure may show the parent alone.
How the values were obtained:
TMD-8 cells = experiment: BTK (wt) cell proliferation, TMD-8 (CellTiter-Glo, 72 h); assay type: cell-based; details: Homo sapiens, TMD8, 72 h, TMD-8 cells, 72 h, CellTiter-Glo; read-out: BTK WT TMD-8 GI50;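 note: viable cells quantified by ATP-based luminescence, proliferation expressed as percent of DMSO control after subtracting a time-zero baseline plate read at dosing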
[1] = test system: NCI-H1975 EGFR L858R/T790M cells; experiment: Cell proliferation, NCI-H1975 EGFR L858R/T790M (CellTiter-Glo, 72 h); assay type: cell-based; details: Homo sapiens, NCI-H1975, 72 h, NCI-H1975, 72 h proliferation; read-out: EGFR L858R and T790M mutation GI50;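 note: viable cells quantified by luciferase-based ATP luminescence, proliferation expressed relative to DMSO-treated wells (100%) after subtracting a parallel plate read at the time of dosing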
WT EGFR cell line A-431 = experiment: Cell proliferation, WT EGFR A431 (CellTiter-Glo, 72 h); assay type: cell-based; details: Homo sapiens, A-431, 72 h, A431, 72 h proliferation; read-out: EGFR WT A431 GI50;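 note: proliferation from a luminescent ATP viability signal, expressed as 100 × (treated minus time-zero plate) over (DMSO control minus time-zero plate), cells grown with 10% FBS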
[2] = test system: Her2 exon 20 insertion YVMA transduced NIH-3T3 cell line; experiment: Cell proliferation, Her2 YVMAins NIH-3T3 (CellTiter-Glo, 72 h); assay type: cell-based; details: Mus musculus, NIH3T3, 72 h, Her2 YVMAins cells, 72 h proliferation; read-out: Her2 Exon 20 YVMA insertion GI50;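 note: viable cells quantified by ATP luminescence, growth over a day-zero baseline plate expressed as percent of DMSO control growth, compound dilution series in 10% FBS medium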
Procedure: WT or mutant cells were seeded in 384 well plates at appropriate concentrations with corresponding growth media supplemented with 10% FBS, for each experiment, identical plates were prepared in duplicates, and the plates were incubated overnight. On the next day, one of each duplicated plates was dosed with tested compounds at a series of concentrations, and another one of the duplicated plate was analysied for G0 value. The dosed plates were incubate for another 72 h at 37° C. with 5% CO2 and the number of viable cells in each well of the G0 plates or the dosed plates were measured by CellTiter-Glo® Luminescent Cell Viability Assay (Promega). This assay is a luminescent method for determining the number viable cells through measurement of cellular ATP concentration by detection of luciferase activity. Detection reagents (15 µl) was dispensed into per well, and the plates were incubate for 30 min at room temperature. Then, the luminescence in each well was measured using the Envision plate reader (PerkinElmer). The percentage of proliferation was calculated based on the formula: %Proliferation= 100 × (G3 value of sample well-Go value)/(G3 value of DMSO control-Go value).

EGFR L858R&T790M = target: T1, EGFR L858R&T790M (Homo sapiens, UniProt P00533, L858R/T790M); experiment: EGFR L858R and T790M cellular phosphorylation inhibition in NCI-H1975 (MSD); assay type: cell-based; details: NCI-H1975 cells, 4 h compound, p-EGFR(Y1068)/total EGFR; read-out: EGFR L858R and T790M mutation IC50;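 note: phosphorylated and total EGFR detected by electrochemiluminescence, cells exposed to compound in medium containing 1% FBS at 37 °C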
T1 construct: host or cells: NCI-H1975
T1 sequence (P00533 25-1210 T790M/L858R): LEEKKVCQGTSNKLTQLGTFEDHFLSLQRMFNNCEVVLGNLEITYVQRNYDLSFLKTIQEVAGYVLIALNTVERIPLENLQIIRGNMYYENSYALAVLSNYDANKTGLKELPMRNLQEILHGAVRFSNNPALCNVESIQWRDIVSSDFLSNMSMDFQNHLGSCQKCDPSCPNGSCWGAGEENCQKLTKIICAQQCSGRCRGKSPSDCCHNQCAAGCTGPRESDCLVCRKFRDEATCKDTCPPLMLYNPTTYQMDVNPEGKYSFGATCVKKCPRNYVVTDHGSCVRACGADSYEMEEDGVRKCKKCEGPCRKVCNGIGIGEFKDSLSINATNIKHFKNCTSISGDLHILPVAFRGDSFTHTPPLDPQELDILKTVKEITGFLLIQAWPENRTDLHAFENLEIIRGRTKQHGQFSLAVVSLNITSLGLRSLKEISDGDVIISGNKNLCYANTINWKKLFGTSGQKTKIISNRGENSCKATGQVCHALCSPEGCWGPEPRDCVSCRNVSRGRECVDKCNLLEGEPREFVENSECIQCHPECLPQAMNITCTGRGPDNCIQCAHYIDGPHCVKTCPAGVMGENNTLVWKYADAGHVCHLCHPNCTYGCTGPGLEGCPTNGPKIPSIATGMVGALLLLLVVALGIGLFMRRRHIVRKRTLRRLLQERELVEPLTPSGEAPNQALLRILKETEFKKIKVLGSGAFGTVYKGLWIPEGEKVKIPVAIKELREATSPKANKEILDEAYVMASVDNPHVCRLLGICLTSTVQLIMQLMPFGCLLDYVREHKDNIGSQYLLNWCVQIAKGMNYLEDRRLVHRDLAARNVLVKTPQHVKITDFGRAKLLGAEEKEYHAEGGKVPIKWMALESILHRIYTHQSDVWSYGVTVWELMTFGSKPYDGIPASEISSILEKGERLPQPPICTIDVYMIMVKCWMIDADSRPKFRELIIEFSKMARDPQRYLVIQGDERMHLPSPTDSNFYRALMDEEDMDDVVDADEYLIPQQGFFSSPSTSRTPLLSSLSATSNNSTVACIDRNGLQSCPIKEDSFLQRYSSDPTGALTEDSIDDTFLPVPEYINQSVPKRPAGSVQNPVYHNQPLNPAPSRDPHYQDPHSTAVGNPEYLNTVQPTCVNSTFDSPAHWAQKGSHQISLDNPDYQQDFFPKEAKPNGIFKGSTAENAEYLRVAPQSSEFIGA

Ba/F3 EGFR ASV ins cells = experiment: Cell proliferation, Ba/F3 EGFR ASV ins (CellTiter-Glo, 72 h); assay type: cell-based; details: Ba/F3 EGFR, 72 h, Ba/F3 EGFR ASV ins, 72 h proliferation; read-out: EGFR Exon20 ASV insertion GI50;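 note: IL3-independent Ba/F3 cells transduced with EGFR V769_D770insASV, cellular ATP luminescence after compound exposure, growth relative to DMSO control with the day-0 baseline reading subtracted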
DB cells = experiment: BTK (wt) cell proliferation, DB (CellTiter-Glo, 72 h); assay type: cell-based; details: Homo sapiens, DB, DB cells, CellTiter-Glo, read-out: Non-BCR activated DB GI50;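 note: DB cells in 384-well plates given a dilution series of compound, viable cells read by ATP luminescence, growth expressed versus DMSO control after subtracting a time-zero plate reading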
BTK [3] = target: T2, BTK (Homo sapiens, UniProt Q06187); experiment: BTK target site occupancy ELISA (PBMC); assay type: cell-based; details: BTK receptor occupancy
Procedure: (§1) An enzyme-linked immunosorbent assay (ELISA) method for the detection of free uninhibited Btk in mouse and human lysates. Human or mouse whole blood were incubated with compound for 2 hour at 37° C. Whole blood were lysed in ice-cold lysis buffer containing 50 mM Tris-HCl, pH 7.5, 150 mM NaCl, 1 mM EDTA,1% Triton X-100. […] Samples were transferred to a streptavidin-coated 96-well ELISA plate and mixed while shaking for 1 hour at room temperature. The α-Btk antibody (1:500; clone number D3H5, Cell signaling Technology, Danvers, MA, USA) was then added to the well and incubated for 1 hour at room temperature. After wash, goat α-rabbit-FW (1:5000 dilution in PBS+ 0.05% Tween-20 + 1% BSA) was added to each well and incubated for 1 h at room temperature. The ELISA was developed with addition of tetramethyl benzidine (TMB) followed by Stop Solution and read at OD 450 nm.

BTK [4] = target: T2, BTK; experiment: BTK target site occupancy ELISA (Ramos); assay type: cell-based; set-up: endogenous in cells; host or cells: Ramos; details: BTK receptor occupancy, read-out: Occupancy (Romas) IC50
Procedure: as §1

[5] = target: T3, human Her2 exon 20 insertion mutation YVMA (Homo sapiens, UniProt P04626, INS775YVMA); experiment: Her2 Exon 20 YVMA insertion cellular phosphorylation inhibition (MSD p-Her2 Y1248/total Her2); assay type: cell-based; details: Her2 YVMAins cells, 4 h compound;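 note: lentivirally transduced NIH-3T3 cells in 1% FBS medium, electrochemiluminescent MSD read-out, graded compound concentrations at 37 °C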
T3 construct: expressed in transfected cells; host or cells: NIH-3T3, lentiviral transduction, puromycin selection
T3 sequence (P04626 with tags, fused parts or gaps INS775YVMA): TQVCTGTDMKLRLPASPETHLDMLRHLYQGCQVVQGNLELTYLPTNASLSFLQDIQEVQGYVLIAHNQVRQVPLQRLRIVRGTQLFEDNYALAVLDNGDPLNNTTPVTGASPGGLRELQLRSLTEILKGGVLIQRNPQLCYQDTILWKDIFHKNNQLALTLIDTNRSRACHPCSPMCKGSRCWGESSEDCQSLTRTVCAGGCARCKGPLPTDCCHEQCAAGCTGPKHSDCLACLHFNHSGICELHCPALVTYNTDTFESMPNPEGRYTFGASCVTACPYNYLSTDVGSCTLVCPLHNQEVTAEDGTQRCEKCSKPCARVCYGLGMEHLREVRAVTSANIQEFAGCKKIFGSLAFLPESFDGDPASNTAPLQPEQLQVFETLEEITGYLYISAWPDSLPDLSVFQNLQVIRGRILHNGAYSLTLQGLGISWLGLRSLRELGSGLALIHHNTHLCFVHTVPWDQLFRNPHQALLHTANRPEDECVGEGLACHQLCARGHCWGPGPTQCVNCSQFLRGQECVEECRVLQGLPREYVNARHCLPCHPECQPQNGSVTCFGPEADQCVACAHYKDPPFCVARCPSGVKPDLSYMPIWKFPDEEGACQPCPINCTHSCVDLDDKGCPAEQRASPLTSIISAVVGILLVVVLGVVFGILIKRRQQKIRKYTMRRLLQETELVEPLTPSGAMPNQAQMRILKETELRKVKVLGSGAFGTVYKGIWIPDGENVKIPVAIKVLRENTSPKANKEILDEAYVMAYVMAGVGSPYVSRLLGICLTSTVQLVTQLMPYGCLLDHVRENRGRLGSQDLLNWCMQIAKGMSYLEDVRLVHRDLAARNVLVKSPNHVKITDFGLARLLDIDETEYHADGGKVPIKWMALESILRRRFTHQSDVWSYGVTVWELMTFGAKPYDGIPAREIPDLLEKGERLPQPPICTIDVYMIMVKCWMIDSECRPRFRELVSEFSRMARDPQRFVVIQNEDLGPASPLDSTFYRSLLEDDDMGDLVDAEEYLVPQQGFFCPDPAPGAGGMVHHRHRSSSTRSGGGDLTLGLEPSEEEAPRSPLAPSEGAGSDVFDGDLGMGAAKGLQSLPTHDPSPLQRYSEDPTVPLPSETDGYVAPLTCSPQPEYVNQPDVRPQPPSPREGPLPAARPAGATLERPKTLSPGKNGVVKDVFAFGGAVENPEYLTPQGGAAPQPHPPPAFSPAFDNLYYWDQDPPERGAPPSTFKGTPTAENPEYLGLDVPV
Procedure: The resulting cell line expressed phosphorylated Her2 protein and its proliferation depended on the mutation gene, which could be used for in vitro PD and anti-proliferation assays.
One day before the test, WT or mutant cells were seeded in 96 well plates at appropriate concentrations with corresponding growth media supplemented with 1% FBS, and incubated overnight. The next day, tested compounds at a series of concentrations were added into each individual well of the plates, and the plates were incubated for 4 h at 37° C. with 5% CO2.
The EGFR (Y1068) phosphorylation level (activity) of cells in each well were then measured with MSD kit named “MULTI-SPOT®96 4-Spot HB Prototype EGFR Triplex [sequence]: pEGFR(Tyr1068),pEGFR(Tyr1173), Total EGFR” according to the manufacturer’s instruction (MESO SCALE DISCOVERY, Cat# N45ZB-1). The assay is an electrochemiluminescent method for determining both phosphorylated and total EGFR of cells with an MSD SECTOR® Imager and the ratio of p-EGFR/total EGFR can be generated by the machine. The Her2 (Y1248) phosphorylation level (activity) of cells in each well were measured with MSD Kit named “Phospho-ErbB2 (Tyr1248) Assay Whole Cell Lysate Kit” according to the manufacturer’s instruction (MESO SCALE DISCOVERY, Cat# K151CLD-3). The assay is an electrochemiluminescent method (MESO SCALE DISCOVERY) for determining both phosphorylated and total Her2 of cells with an MSD SECTOR® Imager and then the ratio of p-Her2/total Her2 can be generated by the machine.

WT EGFR = target: T4, WT EGFR (Homo sapiens, UniProt P00533); experiment: WT EGFR cellular phosphorylation inhibition in A-431 (hEGF stimulated, MSD); assay type: cell-based; details: A431 cells, 4 h compound, then 100 ng/ml hEGF 10 min;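 note: electrochemiluminescence read-out of EGFR Tyr1068 phosphorylation expressed as ratio to total EGFR, cells kept in medium with 1% FBS, compounds tested as a concentration series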
T4 construct: host or cells: A-431
T4 sequence (P00533 25-1210): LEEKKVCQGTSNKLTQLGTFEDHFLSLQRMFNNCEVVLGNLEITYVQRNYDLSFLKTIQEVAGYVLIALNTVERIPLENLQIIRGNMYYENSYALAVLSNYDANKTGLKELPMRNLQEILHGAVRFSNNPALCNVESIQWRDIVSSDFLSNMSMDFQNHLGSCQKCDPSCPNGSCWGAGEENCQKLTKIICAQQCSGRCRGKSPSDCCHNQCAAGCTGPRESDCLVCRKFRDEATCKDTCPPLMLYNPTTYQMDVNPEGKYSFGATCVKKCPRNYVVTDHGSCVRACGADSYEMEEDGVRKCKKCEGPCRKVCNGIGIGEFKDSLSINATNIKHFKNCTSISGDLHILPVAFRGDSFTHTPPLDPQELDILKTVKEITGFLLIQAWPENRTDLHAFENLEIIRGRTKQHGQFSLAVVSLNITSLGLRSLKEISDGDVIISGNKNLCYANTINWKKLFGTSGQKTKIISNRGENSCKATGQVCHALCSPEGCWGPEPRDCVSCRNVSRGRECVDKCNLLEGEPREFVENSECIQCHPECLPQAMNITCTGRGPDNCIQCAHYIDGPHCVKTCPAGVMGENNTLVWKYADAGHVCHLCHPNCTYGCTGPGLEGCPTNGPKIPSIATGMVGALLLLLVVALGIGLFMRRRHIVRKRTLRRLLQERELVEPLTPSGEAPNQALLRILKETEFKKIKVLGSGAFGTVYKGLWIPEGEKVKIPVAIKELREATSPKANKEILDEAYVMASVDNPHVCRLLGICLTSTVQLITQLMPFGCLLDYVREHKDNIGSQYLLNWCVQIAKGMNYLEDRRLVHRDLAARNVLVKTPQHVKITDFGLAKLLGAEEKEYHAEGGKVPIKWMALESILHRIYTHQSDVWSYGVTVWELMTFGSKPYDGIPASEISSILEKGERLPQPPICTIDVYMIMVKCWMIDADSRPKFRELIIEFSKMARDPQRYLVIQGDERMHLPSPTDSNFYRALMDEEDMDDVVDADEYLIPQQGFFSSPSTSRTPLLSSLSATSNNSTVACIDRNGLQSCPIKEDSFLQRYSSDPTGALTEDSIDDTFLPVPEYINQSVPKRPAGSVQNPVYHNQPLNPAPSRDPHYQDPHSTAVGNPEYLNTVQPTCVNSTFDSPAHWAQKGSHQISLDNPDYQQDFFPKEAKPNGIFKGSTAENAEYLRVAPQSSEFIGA

[6] = target: T5, human EGFR exon 20 H773_V774insNPH (Homo sapiens, UniProt P00533, INS773NPH); experiment: EGFR Exon20 NPH insertion cellular phosphorylation inhibition (MSD pEGFR Y1068/total EGFR); assay type: cell-based; details: Ba/F3 EGFR NPH ins cells, 4 h compound, p-EGFR(Y1068)/total EGFR;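 note: IL3-independent Ba/F3 cells with constitutively phosphorylated EGFR, compound exposure at 37 °C under 5% CO2, electrochemiluminescent MSD measurement of the p-EGFR to total EGFR ratio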
T5 construct: host or cells: Ba/F3
T5 sequence (P00533 with tags, fused parts or gaps INS773NPH): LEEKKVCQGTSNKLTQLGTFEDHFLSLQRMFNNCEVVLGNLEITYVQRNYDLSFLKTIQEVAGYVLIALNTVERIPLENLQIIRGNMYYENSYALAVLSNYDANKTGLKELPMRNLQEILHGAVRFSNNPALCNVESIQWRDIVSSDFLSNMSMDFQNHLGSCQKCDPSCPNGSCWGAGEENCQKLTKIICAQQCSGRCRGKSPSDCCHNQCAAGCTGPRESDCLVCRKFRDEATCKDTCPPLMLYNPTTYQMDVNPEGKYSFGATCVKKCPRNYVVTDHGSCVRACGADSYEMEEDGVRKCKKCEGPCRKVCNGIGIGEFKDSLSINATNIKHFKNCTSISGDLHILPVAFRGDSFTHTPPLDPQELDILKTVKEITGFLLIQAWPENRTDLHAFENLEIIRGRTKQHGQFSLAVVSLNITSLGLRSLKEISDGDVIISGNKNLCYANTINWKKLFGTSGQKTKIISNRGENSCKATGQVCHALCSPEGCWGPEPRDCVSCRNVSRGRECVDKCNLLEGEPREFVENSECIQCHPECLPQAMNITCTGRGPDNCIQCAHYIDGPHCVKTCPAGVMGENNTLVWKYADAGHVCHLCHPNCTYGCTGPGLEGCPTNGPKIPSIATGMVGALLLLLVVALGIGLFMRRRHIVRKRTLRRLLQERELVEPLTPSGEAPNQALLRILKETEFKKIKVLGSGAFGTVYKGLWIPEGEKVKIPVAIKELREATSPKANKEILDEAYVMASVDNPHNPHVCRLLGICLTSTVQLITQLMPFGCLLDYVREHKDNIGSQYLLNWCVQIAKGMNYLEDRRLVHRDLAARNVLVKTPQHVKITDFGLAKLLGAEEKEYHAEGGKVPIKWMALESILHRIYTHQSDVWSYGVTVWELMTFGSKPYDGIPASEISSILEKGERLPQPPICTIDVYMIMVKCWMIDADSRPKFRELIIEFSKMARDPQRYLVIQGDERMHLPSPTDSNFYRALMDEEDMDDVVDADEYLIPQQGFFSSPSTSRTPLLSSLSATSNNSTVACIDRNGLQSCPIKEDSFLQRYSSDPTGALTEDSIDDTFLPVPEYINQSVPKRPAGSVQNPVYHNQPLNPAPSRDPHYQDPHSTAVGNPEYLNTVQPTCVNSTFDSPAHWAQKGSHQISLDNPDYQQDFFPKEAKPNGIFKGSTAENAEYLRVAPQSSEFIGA

OCI-LY-10 cells = experiment: BTK (wt) cell proliferation, OCI-LY-10 (CellTiter-Glo, 72 h); assay type: cell-based; details: Homo sapiens, OCI-Ly10, 72 h, OCI-LY-10 cells, 72 h, CellTiter-Glo; read-out: BTK WT OCI-LY-10 GI50;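 note: viable cells quantified via cellular ATP luminescence, proliferation given as percent of DMSO control after subtracting a duplicate plate read at time of dosing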
Procedure: OCI-LY-10 at 3,750 cells/well, TMD-8 and Ri-1 at 2,000 cells/well, and DB at 1,250 cells/well, respectively, were sorted into 384-well plates in RPMI1640 medium with 10% FBS. After overnight incubation, all cells were incubated with compound at a series of concentrations. Meanwhile, a duplicated plate of each cell line was prepared for measuring G0 value. The dosed plates were further incubated for 72 hours and the number of viable cells was measured by CellTiter-Glo® Luminescent Cell Viability Assay (Promega), a luminescent method for determining the number of viable cells through measurement of cellular ATP concentration using Envision plate reader (PerkinElmer). The percentage of proliferation was calculated as: % Proliferation = 100 × (G3 value of sample well - G0 value)/(G3 value of DMSO control - G0 value).

Phospho-BTK (Tyr223) = target: T6, Phospho-BTK (Tyr223) (Homo sapiens, UniProt Q06187); experiment: p-BTK assay in Ramos cells (HTRF Phospho-BTK Tyr223); assay type: cell-based; details: pervanadate stimulated, read-out: p-BTK (Romas) IC50
T6 construct: endogenous in cells; host or cells: Ramos
Procedure: The assay plates were then incubated for 30 minutes at 37° C., 5% CO2. 300 uM Per vanadate (3X) was added to each well and the assay plates were again incubated for 60 minutes at 37° C., 5% CO2. Phospho-BTK (Tyr223) is detected using the HTRF® reagents (Cisbio) according to the manufacturer’s one-plate assay protocol.

Ba/F3 EGFR NPH ins cells = experiment: Cell proliferation, Ba/F3 EGFR NPH ins (CellTiter-Glo, 72 h); assay type: cell-based; details: Ba/F3 EGFR, 72 h, Ba/F3 EGFR NPH ins, 72 h proliferation; read-out: EGFR Exon20 NPH insertion GI50;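 note: IL3-independent cells carrying constitutively phosphorylated EGFR, compound dilution series, viable cells quantified by ATP luminescence, growth relative to DMSO wells after subtracting pre-dosing (day 0) baseline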
[7] = target: T7, human EGFR exon 20 V769_D770insASV (Homo sapiens, UniProt P00533, INS769ASV); experiment: EGFR Exon20 ASV insertion cellular phosphorylation inhibition (MSD pEGFR Y1068/total EGFR); assay type: cell-based; details: Ba/F3 EGFR ASV ins cells, 4 h compound, p-EGFR(Y1068)/total EGFR;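 note: electrochemiluminescent readout on an MSD SECTOR Imager, IL3-independent transduced cells in medium with 1% FBS, compound concentration series at 37 °C and 5% CO2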
T7 construct: expressed in transfected cells; host or cells: Ba/F3 (DSMZ ACC-300), lentiviral transduction, puromycin selection, IL3 depletion

Ri-1 cells = experiment: BTK (wt) cell proliferation, Ri-1 (CellTiter-Glo, 72 h); assay type: cell-based; details: Ri-1, 72 h, Ri-1 cells, 72 h, CellTiter-Glo; read-out: BTK WT Ri-1 GI50;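 note: viable cells quantified as cellular ATP luminescence, proliferation normalized to a time-zero plate and the DMSO control, compounds tested across a dilution series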
[8] = In vitro human hepatocytes clearance assay; details: both, human, cryopreserved human hepatocytes (suspension), human hepatocytes Clint (µL/min/10^6cells), mixed gender human hepatocytes, incubation up to 100 min
[9] = In vitro rat hepatocytes clearance assay; details: male, rat, cryopreserved rat hepatocytes (suspension), rat hepatocytes Clint (µL/min/10^6cells), 1 µM-range incubation up to 100 min
[10] = Rat pharmacokinetic study after oral administration (SOA); assay type: in vivo; details: male Han Wistar rats
Procedure: For rat pharmacokinetic studies, six male Han Wistar rats were purchased from Beijing Vital River and orally dosed with the test compound at 10 mg/kg in 0.5% Tween-80 and 0.5% hydroxypropyl methylcellulose (v/w). At, 0.5, 1, 2, 4, 7 and 16 hours post-dose, blood samples (>100 µL/time point) were collected from portal vein and via cardiac puncture into separate K2EDTA […] tubes, and then immediately centrifuged at 1500 g, 5 min at 4° C. to separate plasma. The plasma samples were deproteinized with 4 fold acetonitrile (including internal standard), vortex for 10 min and centrifuges for 10 minutes at 4000 g at 4° C.. The supernatantswere submitted to LC/MS/MS (API 5500, Applied Biosystems, Foster City) analysis. Two sets of standard curves were run at the beginning and end of each batch from plasma sample analysis.
Compound absorption was measured by portal vein AUC (AUCHPV) and systemic AUC (AUCSYS) observed maximum concentration (Cmax) in rats after oral administration. Dose is the actual dose used in SOA study. Find below in Table 9 data for exemplary tested compounds.

Compound | GI50 (TMD-8 cells) [nM] | GI50 [1] [nM] | GI50 (WT EGFR cell line A-431) [nM] | GI50 [2] [nM] | IC50 (EGFR L858R&T790M) [nM] | GI50 (Ba/F3 EGFR ASV ins cells) [nM] | GI50 (DB cells) [nM] | IC50 (BTK [3]) [nM] | IC50 (BTK [4]) [nM] | IC50 [5] [nM] | IC50 (WT EGFR) [nM] | IC50 [6] [nM] | GI50 (OCI-LY-10 cells) [nM] | IC50 (Phospho-BTK (Tyr223)) [nM] | GI50 (Ba/F3 EGFR NPH ins cells) [nM] | IC50 [7] [nM] | GI50 (Ri-1 cells) [nM] | hepatocyte CLint at 1 µM [8] [µL/min/1e6 cells] | hepatocyte CLint at 1 µM [9] [µL/min/1e6 cells] | other results
C=CC(=O)Nc1cc(Nc2ncnc(Nc3cc(F)c(F)cc3C(C)(C)O)n2)c(OC)cc1N1CC(CN(C)C)C1 [Compound 23, N-(5-(4-(4,5-difluoro-2-(2-hydroxypropan-2-yl)phenylamino)-1,3,5-triazin-2-ylamino)-2-(3-((dimethylamino)methyl)azetidin-1-yl)-4-methoxyphenyl)acr ylamide] | 3.93 | 34.7 | 76.8 | 271 | 1.3 | 159 | > 3000 | 1.1 | 1.1 | 52.7 | 101 | 321 | 1.49 | 1.6 | 224 | 87.6 | 3.71 |  |  | 
C=CC(=O)Nc1cc(Nc2ncnc(Nc3cc(Cl)c(F)cc3C(C)(C)O)n2)c(OC)cc1N1CC[C@@H]1CN(C)C [Compound 38, (R)-N-(5-(4-(5-chloro-4-fluoro-2-(2-hydroxypropan-2-yl)phenylamino)-1,3,5-triazin-2-ylamino)-2-(2-((dimethylamino)methyl)azetidin-1-yl)-4-methoxyphenyl)acrylamide] | 1.62 | 3.9 | 19.7 | 84.8 | 0.9 | 46.2 | > 3000 | 1.7 | 0.8 | 9.3 | 18.9 | 19.6 | 0.7 | 1.3 | 59.4 | 8 | 1.49 |  |  | 
C=CC(=O)Nc1cc(Nc2ncnc(Nc3cc(Cl)c(F)cc3C(C)(C)O)n2)c(OC)cc1N1CC(CN(C)C)C1 [Compound 39, N-(5-(4-(5-chloro-4-fluoro-2-(2-hydroxypropan-2-yl)phenylamino)-1,3,5-triazin-2-ylamino)-2-(3-((dimethylamino)methyl)azetidin-1-yl)-4-methoxyphenyl)acrylamide] | 1.69 | 5.5 | 26.5 | 69.9 | 1.8 | 76.6 | > 3000 | 1.3 | 1 | 13.2 | 30.1 | 45.6 | 1.74 | 0.9 | 71.8 | 29.9 | 1.47 |  |  | 
C=CC(=O)Nc1cc(Nc2nccc(Nc3cc(Cl)c(F)cc3C(C)(C)O)n2)c(OC)cc1N1CC[C@@H]1CN(C)C [Compound 53, (R)-N-(5-(4-(5-chloro-4-fluoro-2-(2-hydroxypropan-2-yl)phenylamino)pyrimidin-2-ylamino)-2-(2-((dimethylamino)methyl)azetidin-1-yl)-4-methoxyphenyl)acrylamide] | 6.39 | 4 | 71.8 | 137 | 1.1 | 84 | > 3000 | 3.8 | 3.1 | 10.9 | 139 | 30 | 9.16 | 3.8 | 89.3 | 25.8 | 17.1 | 4.04 | 12.3 | SOA DN AUCSYS (ng·h/mL)/(mg/kg) ([10]; dose-normalised systemic AUC): 116 (ng·h/mL)/(mg/kg); Cmax ([10]; rat, plasma, nominal 10 mg/kg (actual dose in c1)): 195 ng/mL
C=CC(=O)Nc1cc(Nc2nccc(Nc3cc(Cl)c(F)cc3C(C)(C)O)n2)c(OC)cc1N1CC[C@@H](NC)C1 [Compound 80, (R)-N-(5-(4-(5-chloro-4-fluoro-2-(2-hydroxypropan-2-yl)phenylamino)pyrimidin-2-ylamino)-4-methoxy-2-(3-(methylamino)pyrrolidin-1-yl)phenyl)acr ylamide TFA salt] | 40.2 | 14.8 | 81.5 | 467 | 4.5 | 177 | > 3000 | 5.7 | 3.4 | 51.8 | 350 | 95 | 23.7 | 5.8 | 220 | 36.8 | > 3000 | 2.81 | 15.5 | 
